# Measurements reported in patent US6242444A, “Compounds and pharmaceutical compositions containing the same” (The Jordanian Pharmaceutical Manufacturing and Medical …, priority 1999, dated 2001).
# What was measured:
# Format in all cases: in vivo, rat
# [1] = test system: male rats; assay: Penile erection study in male rats after oral administration (responding rats, ED50, erection episodes, penile erection index); details: for responding rats, # / responding rats, %: 10 rats tested, 2 h observation; for copulation mounting behaviour: 0.0781-0.625 mg/kg
# Description: The purpose of this study was to compare the biological activity of compound 7a with that of sildenafil. In particular, the respective ED50 -value (ED=effective dose), erection episodes and penile erection indices of said compounds in the treatment of male rats were determined. The penile erection index is an established means of determining the erection promoting properties of a substance (see e.g. Ang, H. H., Sim, M. K., Pharm. Sci., 3, 117-119 (1997) and references cited therein).
# In these experiments, the compounds 7a and sildenafil were administered to male rats orally. The doses used for both drugs were 0.0781, 0.1562, 0.3125 and 0.625 mg/kg body weight. Sildenafil was dissolved in distilled water, whereas 7a was dissolved in 1% HCl solution (aq). Control animals were administered with the vehicles only, i.e. distilled water or the 1% HCl solution. During the experiments, the rats were placed in glass cages for observation and had access to food and water. During 2 h after administration of the investigated compounds, the penile erection of the rats was monitored.
# [2] = Preliminary toxicity studies in rats; details: rat, in vivo, read-out: tolerated dose without any detrimental effects
# Description: (§1) Moreover, according to preliminary toxicity studies in rats, the compound 7a is tolerated up to a dose of about […] body weight without any detrimental effects. […] Thus, high doses of 7a provide a particularly efficient means for treatment of erectile dysfunction.
# [3] = test system: rats; assay: Preliminary toxicity studies in rats
# Description: as §1
SMILES,"responding rats, # ([1]; dose 0.0781 mg/kg oral)","responding rats, % ([1]; dose 0.0781 mg/kg oral)","responding rats, # ([1]; dose 0.1562 mg/kg oral)","responding rats, % ([1]; dose 0.1562 mg/kg oral)","responding rats, # ([1]; dose 0.3125 mg/kg oral)","responding rats, % ([1]; dose 0.3125 mg/kg oral)","responding rats, # ([1]; dose 0.6250 mg/kg oral)","responding rats, % ([1]; dose 0.6250 mg/kg oral)","copulation mounting behaviour ([1]; male rats, oral)","number of erection episodes and penile erection indices (in words) ([1]; male rats, oral, 7a vs sildenafil, FIGS. 1 and 2)","ED50 of 7a compared with sildenafil (in words) ([1]; male rats, oral, 7a vs sildenafil, 95% confidence interval)",NOAEL [2],toxicity and side-effects (in words) [3]
"CCCc1nn(C)c2c(=O)[nH]c(-c3cc(S(=O)(=O)N4CCN(C)CC4)cc4c3OCC4)nc12 [Compound 7a, 5-[2,3-dihydro-5-(4-methylpiperazin-1-ylsulfonyl)-7-benzofuryl]-1-methyl-3-propyl-6,7-dihydro-1H-pyrazolo[4,3-d]pyrimidin-7-one]",3 #,30%,4 #,40%,4 #,40%,8 #,80%,no copulation mounting behaviour was observed,"superior to sildenafil, especially at higher doses",lower than that of sildenafil,~0.35 mg/kg,completely non-toxic and free from undesirable side-effects
"CCCc1nn(C)c2c(=O)[nH]c(-c3cc(S(=O)(=O)N4CCN(C)CC4)ccc3OCC)nc12 [Sildenafil, reference compound]",3 #,30%,3 #,30%,5 #,50%,7 #,70%,no copulation mounting behaviour was observed,,,,
